Experiments:
[1] = Inhibitory constant towards 5-hydroxytryptamine 2C receptor (5-HT2C)
[2] = Inhibitory constant towards 5-hydroxytryptamine 2A receptor (5-HT2A)
[3] = Inhibitory constant towards dopamine D2 receptor was determined
[4] = Ratio of inhibitory constant for 5-hydroxytryptamine 2A receptor to that of dopamine receptor D2

Row | SMILES | Log Ki [1] | Log Ki [2] | Log Ki [3] | Ratio [4]
1 | O=C1CC(CCN2CCC(c3noc4cc(F)ccc34)CC2)Cc2ccccc21 (centres undefined) | -7.06 | -8.29 | -5.98 | 1.38
2 | COc1ccc2c(c1)C(=O)CC(CCN1CCC3(CC1)NCNC3=O)C2 (centres undefined) | < -5 | < -5 | < -5 | –
3 | COc1ccc2c(c1)C(=O)CC(CCN1CCC3(CC1)NC(=O)NC3=O)C2 (centres undefined) | -6.9 | -5.98 | < -5 | –
4 | O=C1CC(CN2CCC(c3noc4cc(F)ccc34)CC2)Cc2ccccc21 (centres undefined) | -6.89 | -8.57 | – | 1.18
5 | COc1ccc2c(c1)CC(CN1CCC(c3noc4cc(F)ccc34)CC1)CC2=O (centres undefined) | -5.79 | -7.34 | – | 1.16
6 | COc1cc2c(cc1OC)C(=O)CC(CN1CCC(c3noc4cc(F)ccc34)CC1)C2 (centres undefined) | – | -8.02 | – | 1.18
7 | COc1ccc2c(c1)C(=O)CC(CCN1CCN(c3ccccn3)CC1)C2 (centres undefined) | -5.81 | -6.33 | < -5 | –
8 | O=C1NC(=O)C2(CCN(CCC3CC(=O)c4ccccc4C3)CC2)N1 (centres undefined) | -7.05 | -6.15 | < -5 | –
9 | COc1ccc2c(c1)C(=O)CC(CCN1CCN(c3ccccc3OC)CC1)C2 (centres undefined) | -5.72 | -6.65 | -6.55 | 1.01
10 | O=C(CCCN1CCC(O)(c2ccc(Cl)cc2)CC1)c1ccc(F)cc1 [HALOPERIDOL] | – | – | -9.22 | –
11 | COc1ccccc1N1CCN(CCC2CC(=O)c3ccccc3C2)CC1 (centres undefined) | -6.35 | -6.59 | -6.97 | 0.95
12 | O=C1CC(CCN2CCC3(CC2)NCNC3=O)Cc2ccccc21 (centres undefined) | < -5 | < -5 | < -5 | –
13 | COc1ccc2c(c1)C(=O)CC(CCN1CCC(c3noc4cc(F)ccc34)CC1)C2 (centres undefined) | -6.89 | -8.23 | -7.04 | 1.17
14 | O=C1CC(CCN2CCN(c3ccccn3)CC2)Cc2ccccc21 (centres undefined) | < -5 | -6.54 | < -5 | –
15 | CN1CCN(C2=Nc3cc(Cl)ccc3Nc3ccccc32)CC1 [CLOZAPINE] | – | – | -6.65 | –
